The values below come from patent US11465989B2, “Guanidine compounds and use thereof” (IMMUNOMET THERAPEUTICS INC., priority 2014, dated 2022).

The structures appear in SMILES notation. Where a name gives a salt, the structure may show the parent alone.

For one test, the system named is H1975 cell. As to the kind of experiment: In vitro combination study with Dasatinib on H1975 cell. The format is cell-based. Conditions: 0.2 μM of Dasatinib, 8 μM or 40 μM of Example 1, 40 μM or 200 μM of Example 104. Here is the method: (§1) A549, H1975 (CRL5908, ATCC) or U937 cell (CRL1593.2™, ATCC) lines were cultured in RPMI 1640 media (Lifetechnologies, CA) with supplement of 10% FBS and antibiotic-antimycotic (Lifetechnologies, CA). Dasatinib (Combi-Blocks, San Diego, Calif.) is Bcr-Abl-tyrosine kinase inhibitor and Src family tyrosine kinase inhibitor approved for CML treatment. GDC094 (Selleckchem, Houston, Tex.) is a pan-PI3K inhibitor and effective in various cancer cells. H1975 or A549 cells were dissociated from culture plate using 0.5% trypsin-EDTA (Lifetechnologies, CA) and were suspended. U937 cells were spun down using centrifugation. […]
(§2) Among four concentrations of the compounds of present invention, the highest concentration was set to IC80 and the lowest concentration was approximately IC30. […] 100 μl of DMSO was added after removing MTT solution from each well, and were read by VICTOR X3 Multilabel Counter at the wavelength of 550 nm.
(§3) For the analysis of U937 cell viability, 20 μl of Celltiter96® AQueous one solution (MTS, Promega, Madison, Wis.) were added to each well, and plates were incubated at 37° C. and 5% CO2. After 2 hours later, plates read by VICTOR X3 Multilabel Counter at the wavelength of 490 nm. The combination index (CI value) was calculated using Calcusyn (Biosoft, UK).

The subject of test [1] is SK-MEL-239 tumor cells. As to the kind of experiment: In vivo xenograft model using SK-MEL-239 cell. Set-up: species or system mice. As to the method:
The compounds of the present invention were evaluated in vivo using xenograft human cancer model in mice. The compounds of invention were administrated orally or interperitoneal injection. Tumor cell lines were cultured in vitro as monolayer culture. Using female BALB/c nude mice with immune system compromised, each mouse was inoculated subcutaneously at the right flank with tumor cells for tumor development. The treatment was started when the tumor size reaches approximately 100 mm^3
The SK-MEL-239 tumor cell line was maintained in vitro as monolayer in RPMII 640 medium supplemented with 10% heat inactivated fetal bovine serum, 100 U/ml penicillin and 100 μg/ml streptomycin, and L-glutamine (2 mM) at 37° C. in an atmosphere of 5% CO2 in air. The tumor cells were routinely subcultured twice weekly with 0.5% trypsin-EDTA treatment. The cells growing in an exponential growth phase were harvested and counted for tumor cell inoculation.
Female BALB/c nude mice aged 6-8 weeks and weighing approximately 18-22 g were purchased from Vital River. Each mouse was inoculated subcutaneously at the right flank with SK-MEL-239 tumor cells (1×10^7) in 0.1 ml of PBS for tumor development. The treatment was started, when the tumor size reaches approximately 100 mm^3. 100 mg/kg of Phenformin and 15 mg/kg of Vemurafenib were administered via oral gavage twice daily and 100 mg/kg HLPOI (HL176001001) was administered once daily for 21 days. Tumor volumes were measured twice a week in two dimensions using a caliper, and the volume was expressed in mm^3 using the formula: V=0.5×a×b^2, where a and b were the long and short diameters of the tumor, respectively. The T/C value (in percentage) was an indication of antitumor effect. T and C were the mean volumes of the treated and control groups, respectively.

Test [2] has as its system A549 cells. The test can be described thus: Inhibition of OCR (XF Analyzer). It counts as cell-based. The following applies: Homo sapiens, A549, 24 h. The source says: The electron transfer complex in mitochondria is composed of 5 complexes. The complex I accept electrons from NADH produced from glycolysis and TCA cycle and the electrons move to complex […] and the electron is finally transferred to O2 and water molecule is generated. During the electron transfer, proton gradient is generated and the chemical gradient is a driving source to synthesize ATP at complex V. The mitochondrial inhibition of complex I indirectly assessed by measuring the oxygen consumption rate (OCR) at complex IV. […] The solution outside of cells becomes acidic (lower pH) as lactate is transported to outside of cells. OCR and Extracellular acidification rate (ECAR) are determined by XF Analyzer (Seahorse Biosciences).
A549 cells were purchased from American Type Tissue Culture Collection ([…]) and cultured in RPMI 1640 supplied with 10% fetal bovine serum (FBS) and antibiotic-antimycotic (Lifetech, CA). A549 cells were separated with 0.5% Trypsin-EDTA and 3,000 cells were plated on 1 mg/ml poly-D-lysine (Sigma, P6407) coated XF 96 well […]. A549 cells were allowed to adhere to the wells for 24 hours under the condition of temperature, 37° C. and 5% CO2 The sensor cartridge of XF Analyzer was soaked in 200 Ad of Calibrant solution (Seahorse, MA) in a clear 96-well plate at 37° C. for 24 hours. The compounds of the present invention were diluted with RPMI 1640 without FBS, transferred to A549 cells on XF 96 well plate, and incubated further for 23 hours at 37° C. and 5% CO2. After incubation, the compound solution was exchanged with pre-warmed and pH adjusted (pH7.4) XF assay media (Seahorse) supplied with 15 mM D-glucose (Sigma), 15 mM sodium pyruvate (Lifetechnologies, CA) and 4 mM L-glutamine (Lifetechnologies, CA). The compounds of present invention were prepared in XF Assay media and added to the assay plate. The assay plate was equilibrated in XF Analyzer for 1 hour, and the reading were started by sensor cartridge. The cytotoxicity assay was followed using Cyquant (Lifetechnologies, CA) in order to calibrate the inhibition with cytotoxicity of compounds. The concentrations of the compounds were tested at […] and IC50 value was obtained from the inhibited values. That is, from OCR inhibition values at each concentration of the compound, IC50 was calculated according to Prism's dose response curve fitting.
In Table 1, the levels of OCR IC50 are evaluated by the following.

The next test deals with SK-MEL-28 cells. As to the kind of experiment: Cytotoxicity in low glucose condition (MTT). The format is cell-based. Conditions: Homo sapiens, SK-MEL-28, 0.75 mM glucose, 72 hours, read-out: SK-MEL-28 0.75 mM glucose Cell viability (IC50 ia). The source says: The inhibition of oxidative phosphorylation (OXPHOS) is not cytotoxic to cells in normal glucose condition, because it is postulated that normal cells have compensatory mechanism under energy stress conditions such as low glucose. However OXPHOS inhibitors show cytotoxic effect on cells in the glucose deprived condition (BirsoyK, 2014). The glucose deprived condition is observed in tumor microenvironment potentially due to poor angiogenesis. Therefore the OXPHOS inhibitors may show anti-cancer effect on cancer cells in low glucose condition that may depict tumor microenvironment.
The compounds of the present invention were evaluated their cytotoxicity in SK-MEL-28, melanoma with 0.75 mM glucose supplement. The cytotoxic effect is compared with the cytotoxicity caused by phenformin. The cytotoxicity in low glucose condition is correlated with inhibition of oxygen consumption in mitochondria.
SK-MEL-28 (HTB-72) is a melanoma cell line obtained from ATCC (MA) and cultured in RPMI 1640 media (Lifetechnologies, CA) with supplement of 10% FBS and antibiotic-antimycotic (Lifetechnologies, CA). RPMI 1640 (-Glucose) was used to prepare low glucose media and 0.75 mM glucose was supplied with D-(+)-glucose solution from Sigma. SK-MEL-28 cells were separated from culture plate using 0.5% trypsin-EDTA and 5,000 cells were plated in 96-well plate with low glucose media. After incubation at 37° C. for 24 hour, 5% CO2, the cells were treated with the compounds of present invention in FBS-free media for 72 hours. The cytotoxicity was measured by the MTT (AMRESCO, OH) assay. NADH-dependent cellular oxidoreductase reduces MTT to its insoluble […] with purple color. The enzyme depends on cell number or energy state of cells. 10 μl of 5 mg/ml MIT solution was added to each well of the assay plate and skip the well for blank. The plate was incubated at 37° C. and 5% CO2 for 2 hours. The MTT solution was removed from each well and 100 μl of DMSO was added. The plate was read by VICTOR X3 Multilabel Counter at the wavelength of 550 nm. In Table 2, the levels of IC50 are evaluated by the following criteria.

The test system of test [3] is A549 cells. As to the kind of experiment: In vitro combination study with Dasatinib on A549 cell. It counts as cell-based. The following applies: 0.05 μM of Dasatinib and 8 μM of Phenformin. Here is the method:
as §1, §2, §3

In test [4] the test system is SK-MEL-239 tumor cells. As to the kind of experiment: In vivo xenograft model using SK-MEL-239 cell. More on the design: species or system mice. The following applies: Dosing 150/100 mg/kg, oral, twice daily.
Where [5] appears, read: Dosing 15 mg/kg, oral, twice daily, Day 28.

Usually IC50 stands for the concentration that inhibits the measured activity by half.

As for `Cl.N=C(N)NC(=N)NCCc1ccc(F)cc1` [Example 104, N-1-(4-fluoro)phenethylbiguanide hydrochloride], in the test on H1975 cell, the “combination therapy effect with Dasatinib” value was “low combination therapy effect”.

On to `CCCS(=O)(=O)Nc1ccc(F)c(C(=O)c2c[nH]c3ncc(-c4ccc(Cl)cc4)cc23)c1F` [Vemurafenib, reference compound], for which, in the test on SK-MEL-239 tumor cells [1] (setting [5]), the “T/C (Day 28, %)” value is recorded as 38.0% and the “Tumor Volume (Day 28, mm^3, a)” value is 1,144 ± 101 mm^3.

As for `Cc1cc(F)ccc1CCNC(=N)N` [Example 169, 1-(4-fluoro-2-methylphenethyl)guanide hydrochloride], the results for the IC50 in the test with A549 cells [2] and in the test with SK-MEL-28 cells were greater than 5 µM and greater than 10 µM, respectively.

Take `N=C(N)NC(=N)NCCc1ccc(Br)c(I)c1` [Example 75, N-1-(3-iodo-4-bromo)phenethylbiguanide hydrochloride]: the 50% inhibitory concentration (IC50) is less than 2 µM in the test with A549 cells [2] and less than 5 µM in the test on SK-MEL-28 cells.

For `N=C(N)NC(=N)NCCc1ccc2c(c1)CCCC2` [Example 44, N-1-2-(5,6,7,8-tetrahydronaphthalen-2-yl)ethylbiguanide hydrochloride], the half-inhibitory concentration (IC50) is 2 to 5 µM in the test with A549 cells [2] and less than 5 µM with SK-MEL-28 cells.

Consider `Cc1cc(CCNC(=N)NC(=N)N)ccc1Cl` [Example 61, N-1-(4-chloro-3-methyl)phenethylbiguanide hydrochloride], for which the figures for the IC50 with A549 cells [2] and in the test with SK-MEL-28 cells were 2 to 5 µM and less than 5 µM, respectively.

For the compound `[H]/N=C(/N)N/C(=N/[H])NCCc1ccccc1` [Phenformin, phenformin, reference compound], in the test on A549 cells [3], the “synergic effect in combination with Dasatinib” value was “did not show the synergic effect”. Moreover, the “tumor volume compared to the control group” value in the test on SK-MEL-239 tumor cells [1] (100 mg/kg, Phenformin twice daily, Example 1 once daily) is “significant reduction of tumor volume”. The “tumor volume compared to the single administration of Vemurafenib” value in the test with SK-MEL-239 tumor cells [1] (in combination with 15 mg/kg of Vemurafenib) was “did not show the significant reduction of tumor volume”. Besides, in the test on SK-MEL-239 tumor cells [4], the “T/C (Day 28, %)” value is listed as 52.2% and the “Tumor Volume (Day 28, mm^3, a)” value is reported as 1,562 ± 166 mm^3.

As to `Cc1ccc(CNC(=N)NC(=N)N)c(C)c1` [Example 18, N-1-(2,4-dimethyl)benzylbiguanide hydrochloride], the IC50 in the test on A549 cells [2] is greater than 5 µM; with SK-MEL-28 cells, greater than 10 µM.

On to `COc1cc(CCNC(=N)NC(=N)N)ccc1I` [Example 77, N-1-(4-iodo-3-methoxy)phenethylbiguanide hydrochloride], for which the IC50 in the test with A549 cells [2] was 2 to 5 µM; in the test with SK-MEL-28 cells, 5 to 10 µM.
